In patent US12383699B2, “Catheter attachment made of plastic that contains molecularly dispersed polychlorinated phenoxyphenol (PCPP)” (priority 2017, dated 2025):

Tested on: fibroblasts
Experiment: fibroblast cytotoxicity test (MTT)
Assay type: cell-based
Source text: In FIG. 3, the following meanings apply: Mic: miconazole, Tri: trimetoprim, Rif: rifampicin, Irg: Irgasan, Gen: gentamicin, Fus: fusidic acid, Oct: octenidine, Ben: benzylpenicillin, Chl: chlorohexidine, Cli: clindamycine.

## Oc1cc(Cl)ccc1Oc1ccc(Cl)cc1Cl [Irgasan, 5-chloro-2-(2,4-dichlorophenoxy)phenol]
FIG. 3, MTT
  maximum concentration up to which fibroblasts are hardly inhibited and the substance is non-toxic: ≤ 10 µg/mL
Irgasan release (cm^2) of 2-4 mg/I, release rates for inhibition zones of about 20 mm
  adverse affection in fibroblast-cytotoxicity test: only a minimum adverse affection
